According to ChEMBL document CHEMBL5729293, “Inhibitors of KEAP1-Nrf2 protein-protein interaction” (2022):

Assay: Fluorescence Based Assay: The details of the KEAP1 KELCH ThermoFluor® Assay Construct are as follows: Kelch domain of human KEAP 1 (321-624 aa) was used in the assay. The protein was expressed in E. coli with 6His tag that was cleaved prior to receipt for use.ThermoFluor® experiments were carried out using instruments owned by Janssen Research and Discovery, L.L.C. through its acquisition of 3-Dimensional Pharmaceuticals, Inc. 1,8-ANS (Invitrogen) was used as a fluorescent dye. Protein (KEAP Kelch) and compound solutions were dispensed into black 384-well polypropylene PCR microplates (Abgene) and overlayed with silicone oil (1 μL, Fluka, type DC 200) to prevent evaporation.Reference wells contained KEAP Kelch without compounds, and the assay conditions were as follows: 1.1 μM (0.037mg/mL) KEAP Kelch, 80 μM 1,8-ANS, 25 mM PIPES, pH 7.0, 100 mM NaCl, 0.002% Tween-20.

| Structure (SMILES) | Kd [nM] |
| --- | --- |
| Cc1ccc([C@@H](c2ccn3c(C(F)(F)F)nnc3c2C)C(C)(C)C(=O)O)nc1CN1CC2(CC2)Oc2nc(OCCN3CCCC3)c(C)cc2S1(=O)=O | < 1 |
| COc1ccc2c(n1)OC1(CCOCC1)CN(Cc1cc([C@@H](c3ccn4c(C(F)F)nnc4c3C)C(C)(C)C(=O)O)ccc1C)S2(=O)=O | < 1 |
| Cc1ccc(C(CC(=O)O)c2ccn3c(C(F)F)nnc3c2C)cc1CN1C[C@@H]2CCCN2c2ncc(C#N)cc2S1(=O)=O (stereo partly drawn) | < 1 |
| Cc1cnc2c(c1)S(=O)(=O)N(Cc1cc([C@@H](c3ccn4c(C(F)(F)F)nnc4c3C)C(C)(C)C(=O)O)ccc1C)CC1(COC1)O2 | < 1 |
| Cc1ccc([C@H](c2ccn3c(C(F)(F)F)nnc3c2C)C(C)(C)C(=O)O)cc1CN1CC2(CCOCC2)Oc2nc(OCCCOCCCO)ccc2S1(=O)=O | < 1 |
| Cc1cnc2c(c1)S(=O)(=O)N(Cc1cc(C(c3ccn4c(C(F)(F)F)nnc4c3C)C(C)(C)C(=O)O)cnc1C)CC1(CCOCC1)O2 (stereo not drawn) | < 1 |
| Cc1cnc2c(c1)S(=O)(=O)N(Cc1cc([C@@H](c3ccn4c(C(F)(F)F)nnc4c3C)C(C)(C)C(=O)O)ncc1C)CC1(CC1)O2 | < 1 |
| Cc1ccc(C(CC(=O)O)c2ccn3c(C(F)F)nnc3c2C)cc1CN1C[C@H]2CCCN2c2ncc(C#N)cc2S1(=O)=O (stereo partly drawn) | < 1 |
| Cc1cnc([C@@H](c2ccn3c(C(F)F)nnc3c2C)C(C)(C)C(=O)O)cc1CN1CC2(CC2)Oc2nc(OCCN3CCCCC3)c(C)cc2S1(=O)=O | < 1 |
| Cc1cnc([C@@H](c2ccn3c(C(F)F)nnc3c2C)C(C)(C)C(=O)O)cc1CN1CC2(CC2)Oc2nc(OCCN3CCCC3)c(C)cc2S1(=O)=O | < 1 |
| Cc1ccc([C@@H](c2ccn3c(C(F)F)nnc3c2C)C(C)(C)C(=O)O)cc1CN1CC2(CCOCC2)Oc2nc(OCCN3CCOCC3)ccc2S1(=O)=O | < 1 |
| Cc1cnc2c(c1)S(=O)(=O)N(Cc1cc(C(CC(=O)O)c3ccn4c(C(F)F)nnc4c3C)ccc1C)CC1(CC1)O2 (stereo not drawn) | < 1 |
| Cc1ccc([C@@H](c2ccn3c(C(F)(F)F)nnc3c2C)C(C)(C)C(=O)O)cc1CN1CC2(CCOCC2)Oc2nc(OC(C)CN3CCCCC3)c(C)cc2S1(=O)=O (stereo partly drawn) | < 1 |
| Cc1ccc([C@H](CC(=O)O)c2ccn3c(C(F)F)nnc3c2C)cc1CN1C[C@@H]2CCCN2c2ncc(C#N)cc2S1(=O)=O | < 1 |
| Cc1ccc2c(n1)OC1(CC1)CN(Cc1cc([C@H](CC(=O)O)c3ccn4c(C(F)(F)F)nnc4c3C)ccc1C)S2(=O)=O | < 1 |
| Cc1cnc([C@@H](c2ccn3c(C(F)(F)F)nnc3c2C)C(C)(C)C(=O)O)cc1CN1CC2(CCOCC2)Oc2nc(OCCN3CCCC3)c(C)cc2S1(=O)=O | < 1 |
| Cc1ncc([C@H](c2ccn3c(C(F)(F)F)nnc3c2C)C(C)(C)C(=O)O)cc1CN1CC2(CCOCC2)Oc2ncccc2S1(=O)=O | < 1 |
| Cc1ccc([C@@H](c2ccn3c(C(F)F)nnc3c2C)C(C)(C)C(=O)O)nc1CN1CC2(COC2)Oc2ncccc2S1(=O)=O | < 1 |
| Cc1ccc(C(CC(=O)O)c2ccn3c(C(F)F)nnc3c2C)cc1CN1CC2(CCOCC2)Oc2ncc(F)cc2S1(=O)=O (stereo not drawn) | < 1 |
| Cc1ccc([C@H](c2ccn3c(C4CC4)nnc3c2C)C(C)(C)C(=O)O)cc1CN1CC2(COC2)Oc2ncccc2S1(=O)=O | < 1 |
| CCn1nnc2c(C)c([C@H](c3ccc(C)c(CN4CC5(CCOCC5)Oc5ncccc5S4(=O)=O)n3)C(C)(C)C(=O)O)ccc21 | < 1 |

| Structure (SMILES) | Kd [nM] |
| --- | --- |
| Cc1cnc([C@@H](c2ccn3c(C(F)F)nnc3c2C)C(C)(C)C(=O)O)cc1CN1CC2(CCOCC2)Oc2nc(OCCN3CCCCC3)c(C)cc2S1(=O)=O | < 1 |
| Cc1cnc([C@@H](c2ccn3c(C(F)(F)F)nnc3c2C)C(C)(C)C(=O)O)cc1CN1CC2(CC2)Oc2nc(OCCN3CCCCC3)c(C)cc2S1(=O)=O | < 1 |
| Cc1ccc([C@@H](c2ccn3c(C(F)(F)F)nnc3c2C)C(C)(C)C(=O)O)cc1CN1CC2(CC2)Oc2nc(OCCN3CCC3)c(C)cc2S1(=O)=O | < 1 |
| Cc1ccc([C@@H](CC(=O)O)c2ccn3c(C(F)F)nnc3c2C)cc1CN1C[C@@H]2CCCN2c2ncc(C#N)cc2S1(=O)=O | < 1 |
| Cc1cnc2c(c1)S(=O)(=O)N(Cc1cc([C@H](c3ccn4c(C(F)(F)F)nnc4c3C)C(C)(C)C(=O)O)cnc1C)CC1(CCOCC1)O2 | < 1 |
| Cc1ccc([C@H](CC(=O)O)c2ccn3c(C(F)F)nnc3c2C)cc1CN1CC2(CCOCC2)Oc2ncc(F)cc2S1(=O)=O | < 1 |
| Cc1ccc([C@@H](c2ccn3c(C(F)F)nnc3c2C)C(C)(C)C(=O)O)nc1CN1CC2(CCOCC2)Oc2nc(OCCN3CCCC3)c(C)cc2S1(=O)=O | < 1 |
| Cc1cnc2c(c1)S(=O)(=O)N(Cc1cc(C(c3ccn4c(C(F)F)nnc4c3C)C(C)(C)C(=O)O)ccc1C)CC1(CCOCC1)O2 (stereo not drawn) | < 1 |
| Cc1cnc2c(c1)S(=O)(=O)N(Cc1cc([C@@H](c3ccn4c(C(F)F)nnc4c3C)C(C)(C)C(=O)O)ccc1C)CC1(COC1)O2 | < 1 |
| CCn1nnc2c(C)c([C@H](c3ccc(C)c(CN4CC5(CCOCC5)Oc5ncc(C)cc5S4(=O)=O)n3)C(C)(C)C(=O)O)ccc21 | < 1 |
| Cc1cnc2c(c1)S(=O)(=O)N(Cc1cc([C@@H](CC(=O)O)c3ccn4c(C(F)F)nnc4c3C)ccc1C)CC1(CC1)O2 | < 1 |
| CCn1nnc2c(C)c([C@H](c3cc(CN4CC5(CC5)Oc5ncc(C)cc5S4(=O)=O)c(C)cn3)C(C)(C)C(=O)O)ccc21 | < 1 |
| Cc1ccc([C@@H](c2ccn3c(C(F)(F)F)nnc3c2C)C(C)(C)C(=O)O)cc1CN1CC2(CC2)Oc2nc(OCCN3CCOCC3)c(C)cc2S1(=O)=O | < 1 |
| Cc1cnc([C@@H](c2ccn3c(C(F)(F)F)nnc3c2C)C(C)(C)C(=O)O)cc1CN1CC2(CC2)Oc2nc(OCCN3CCCC3)c(C)cc2S1(=O)=O | < 1 |
| Cc1ccc([C@@H](c2ccn3c(C(F)(F)F)nnc3c2C)C(C)(C)C(=O)O)cc1CN1CC2(CCOCC2)Oc2nc(O[C@H](C)CN3CCCCC3)c(C)cc2S1(=O)=O | < 1 |
| Cc1ccc([C@H](c2ccn3c(C(F)(F)F)nnc3c2C)[C@H](C)C(=O)O)cc1CN1CC2(CC2)Oc2ncccc2S1(=O)=O | < 1 |
| Cc1cnc2c(c1)S(=O)(=O)N(Cc1cc([C@@H](c3ccn4c(C(F)F)nnc4c3C)C(C)(C)C(=O)O)ccc1C)CC1(CCOCC1)O2 | < 1 |
| Cc1cnc2c(c1)S(=O)(=O)N(Cc1cc([C@H](c3ccc4c(nnn4C4CC4)c3C)C(C)(C)C(=O)O)ccc1C)CC1(CNC1)O2 | < 1 |
| Cc1ccc([C@@H](c2ccn3c(C(F)(F)F)nnc3c2C)C(C)(C)C(=O)O)cc1CN1CC2(CCOCC2)Oc2nc(O[C@@H](C)CN3CCCCC3)c(C)cc2S1(=O)=O | < 1 |
| Cc1ncc([C@@H](c2ccc3c(nnn3C3CC3)c2C)C(C)(C)C(=O)O)cc1CN1CC2(COC2)Oc2ncccc2S1(=O)=O | < 1 |
| Cc1cnc2c(c1)S(=O)(=O)N(Cc1cc([C@H](c3ccn4c(C5CC5)nnc4c3C)C(C)(C)C(=O)O)ccc1C)CC1(COC1)O2 | < 1 |

| Structure (SMILES) | Kd [nM] |
| --- | --- |
| Cc1ccc(C(CC(=O)O)c2ccn3c(C(F)F)nnc3c2C)cc1CN1CC2(CC2)Oc2ncc(Cl)cc2S1(=O)=O (stereo not drawn) | < 1 |
| Cc1ccc([C@H](CC(=O)O)c2ccn3c(C(F)F)nnc3c2C)cc1CN1C[C@H]2CCCN2c2ncc(C#N)cc2S1(=O)=O | < 1 |
| Cc1ccc([C@@H](c2ccn3c(C(F)(F)F)nnc3c2C)C(C)(C)C(=O)O)cc1CN1CC2(CC2)Oc2nc(OCCN3CC(F)C3)c(C)cc2S1(=O)=O | < 1 |
| Cc1ccc([C@@H](CC(=O)O)c2ccn3c(C(F)F)nnc3c2C)cc1CN1CC2(CC2)Oc2ncc(Cl)cc2S1(=O)=O | < 1 |
| Cc1ccc([C@@H](c2ccn3c(C(F)F)nnc3c2C)C(C)(C)C(=O)O)cc1CN1CC2(COC2)Oc2ncccc2S1(=O)=O | < 1 |
| Cc1ccc([C@@H](CC(=O)O)c2ccn3c(C(F)F)nnc3c2C)cc1CN1CC2(CCOCC2)Oc2ncc(F)cc2S1(=O)=O | < 1 |
| Cc1ccc([C@@H](c2ccn3c(C(F)(F)F)nnc3c2C)C(C)(C)C(=O)O)cc1CN1CC2(CCOCC2)Oc2nc(CCC(=O)NC3CCC3)ccc2S1(=O)=O | < 1 |
| Cc1cnc2c(c1)S(=O)(=O)N(Cc1cc([C@@H](c3ccc4c(nnn4C4CC4)c3C)C(C)(C)C(=O)O)cnc1C)CC1(COC1)O2 | < 1 |
| Cc1cnc2c(c1)S(=O)(=O)N(Cc1cc([C@@H](c3ccn4c(C(F)F)nnc4c3C)C(C)(C)C(=O)O)ccc1C)CC1(CC1)O2 | < 1 |
| Cc1ccc([C@H](c2ccc3c(nnn3C3CC3)c2C)C(C)(C)C(=O)O)cc1CN1CC2(CCNCC2)Oc2ncccc2S1(=O)=O | < 1 |
| Cc1cnc2c(c1)S(=O)(=O)N(Cc1cc([C@@H](c3ccn4c(C(F)(F)F)nnc4c3C)C(C)(C)C(=O)O)ncc1C)CC1(CCOCC1)O2 | < 1 |
| Cc1cnc2c(c1)S(=O)(=O)N(Cc1cc([C@H](CC(=O)O)c3ccn4c(C(F)F)nnc4c3C)ccc1C)CC1(CC1)O2 | < 1 |
| Cc1ccc([C@H](c2ccn3c(C(F)(F)F)nnc3c2C)C(C)(C)C(=O)O)cc1CN1CC2(CCOCC2)Oc2nc(N[C@H](C)CN3CCCCC3)c(C)cc2S1(=O)=O | < 1 |
| Cc1cnc2c(c1)S(=O)(=O)N(Cc1cc([C@H](c3ccn4c(C(F)(F)F)nnc4c3C)C(C)(C)C(=O)O)cnc1C)CC1(CC1)O2 | < 1 |
| Cc1cnc([C@@H](c2ccn3c(C(F)F)nnc3c2C)C(C)(C)C(=O)O)cc1CN1CC2(CCOCC2)Oc2nc(OCCN3CCCC3)c(C)cc2S1(=O)=O | < 1 |
| Cc1cc2c(nc1OCCN1CCCC1)OC1(CC1)CN(Cc1cc([C@@H](c3ccc4c(nnn4C4CC4)c3C)C(C)(C)C(=O)O)cnc1C)S2(=O)=O | < 1 |
| Cc1cnc2c(c1)S(=O)(=O)N(Cc1nc([C@@H](c3ccn4c(C(F)F)nnc4c3C)C(C)(C)C(=O)O)ccc1C)CC1(COC1)O2 | < 1 |
| Cc1ccc([C@@H](CC(=O)O)c2ccn3c(C(F)F)nnc3c2C)cc1CN1CC2(CC2)Oc2ncc(F)cc2S1(=O)=O | < 1 |
| Cc1ccc([C@@H](CC(=O)O)c2ccn3c(C(F)F)nnc3c2C)cc1CN1C[C@H]2CCCN2c2ncc(C#N)cc2S1(=O)=O | < 1 |
| Cc1ccc([C@@H](c2ccn3c(C(F)(F)F)nnc3c2C)C(C)(C)C(=O)O)cc1CN1CC2(COC2)Oc2ncccc2S1(=O)=O | < 1 |
| Cc1ccc([C@@H](c2ccn3c(C4CC4)nnc3c2C)C(C)(C)C(=O)O)cc1CN1CC2(COC2)Oc2ncccc2S1(=O)=O | < 1 |
